According to article PMC10303271, “Synthesis and Receptor Binding Studies of α5 GABAAR Selective Novel Imidazodiazepines Targeted for Psychiatric and Cognitive Disorders” (Molecules, 2023):

Experiments:
[1] = biological target: T1, D5 (Homo sapiens, UniProt P21918); test: PDSP primary binding D5; conditions: 1.5 h; primary binding, 10,000 nM; last figure of the line = mean of the 4 before it; read-out: D5, PDSP raw data, mean
T1 construct: purchased NIMH Psychoactive Drug Screening Program (PDSP)
T1 sequence (P21918 whole entry): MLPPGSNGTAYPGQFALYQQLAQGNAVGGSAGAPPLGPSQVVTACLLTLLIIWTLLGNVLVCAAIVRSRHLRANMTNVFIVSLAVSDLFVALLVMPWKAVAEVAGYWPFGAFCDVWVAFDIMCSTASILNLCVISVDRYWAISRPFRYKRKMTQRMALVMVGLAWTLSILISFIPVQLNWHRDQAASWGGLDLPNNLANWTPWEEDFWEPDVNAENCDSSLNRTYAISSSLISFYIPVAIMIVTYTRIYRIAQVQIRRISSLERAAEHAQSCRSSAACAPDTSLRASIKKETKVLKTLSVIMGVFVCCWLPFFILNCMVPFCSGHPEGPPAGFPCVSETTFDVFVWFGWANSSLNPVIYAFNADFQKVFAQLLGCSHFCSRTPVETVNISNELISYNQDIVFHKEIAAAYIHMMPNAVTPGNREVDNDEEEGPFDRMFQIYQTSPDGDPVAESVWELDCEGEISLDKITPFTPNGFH
Description: (§1) To determine if any off-target receptor-binding effects are present, all the novel ligands were sent to the National Institute of Mental Health (NIMH), Psychoactive Drug Screening Program (PDSP). The ligands were screened over a panel of 47 receptors, ion channels, and transporters to determine any other possible interactions with […]. The hERG-binding was also determined. […] No binding of the test compounds to calcium channels was observed. […] It is necessary to screen the compounds for hERG-binding during the early process of drug discovery. The unintentional binding of many drugs to hERG can cause blockade of hERG K+ channels in the heart, which can cause many side effects including cardiac arrhythmias and sudden death. […] All of the α5 imidazodiazepines were tested for hERG-binding.
(§2) The NIMH PDSP assay protocol book [https://kidbdev.med.unc.edu/databases/PDSP%20Protocols%20II%202013-03-28.pdf accessed on 23 April 2023]. describes the protocols for primary and secondary radio-ligand binding assays. These assays were carried out in a final volume of 125 µL per well in the appropriate binding buffer.
(§3) The binding of a ligand to a receptor, ion channel, or transporter was determined in the […] of 10 µM of the appropriate reference compound. […] Plates were incubated in the dark for 90 min at rt, and the reactions were stopped by vacuum filtration onto 0.3% polyethyleneimine (PEI) soaked 96-well filter mats using a 96-well Filtermateharvester. This was followed by three washes with cold PBS buffer. Radioactivity was then counted on a Microbeta counter. Nonlinear regression was used to analyze the data with N = 6 replicates.

[2] = biological target: T2, Alpha2B (Homo sapiens, UniProt P18089); test: PDSP primary binding Alpha2B; conditions: 1.5 h; primary binding, 10,000 nM; last figure of the line = mean of the 4 before it; read-out: Alpha2B, PDSP raw data, mean
T2 construct: purchased NIMH Psychoactive Drug Screening Program (PDSP)
T2 sequence (P18089 1-450): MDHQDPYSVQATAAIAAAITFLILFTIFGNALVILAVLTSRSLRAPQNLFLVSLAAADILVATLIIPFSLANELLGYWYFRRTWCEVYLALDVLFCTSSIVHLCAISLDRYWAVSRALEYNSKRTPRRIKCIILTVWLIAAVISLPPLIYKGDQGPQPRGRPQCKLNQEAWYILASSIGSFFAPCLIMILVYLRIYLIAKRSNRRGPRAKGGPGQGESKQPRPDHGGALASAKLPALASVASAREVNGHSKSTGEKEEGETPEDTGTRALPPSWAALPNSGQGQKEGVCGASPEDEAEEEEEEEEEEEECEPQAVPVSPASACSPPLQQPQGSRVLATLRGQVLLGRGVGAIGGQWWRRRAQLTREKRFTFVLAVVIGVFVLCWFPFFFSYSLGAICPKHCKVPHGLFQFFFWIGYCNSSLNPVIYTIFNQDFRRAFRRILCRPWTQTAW
Description: as §1, §2, §3

[3] = biological target: T3, 5-HT2A (Homo sapiens, UniProt P28223); test: PDSP primary binding 5-HT2A; conditions: 1.5 h; primary binding, 10,000 nM; last figure of the line = mean of the 4 before it; read-out: 5-HT2A, PDSP raw data, mean
T3 construct: purchased NIMH Psychoactive Drug Screening Program (PDSP)
T3 sequence (P28223 whole entry): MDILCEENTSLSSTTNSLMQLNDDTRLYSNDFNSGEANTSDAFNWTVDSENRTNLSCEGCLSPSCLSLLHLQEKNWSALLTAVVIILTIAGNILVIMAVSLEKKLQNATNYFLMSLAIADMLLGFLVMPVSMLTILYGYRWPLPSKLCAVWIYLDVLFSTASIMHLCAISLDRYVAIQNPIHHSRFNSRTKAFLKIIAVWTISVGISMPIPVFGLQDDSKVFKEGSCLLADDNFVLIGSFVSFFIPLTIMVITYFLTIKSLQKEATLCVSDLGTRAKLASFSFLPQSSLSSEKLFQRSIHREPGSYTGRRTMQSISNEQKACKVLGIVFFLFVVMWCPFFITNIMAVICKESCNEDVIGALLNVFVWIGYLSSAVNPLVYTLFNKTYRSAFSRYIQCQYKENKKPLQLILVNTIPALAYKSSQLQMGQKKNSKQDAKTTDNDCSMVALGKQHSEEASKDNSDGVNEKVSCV
Description: as §1, §2, §3

[4] = biological target: T4, M4 (Homo sapiens, UniProt P08173); test: PDSP primary binding M4; conditions: primary binding, 10,000 nM; last figure of the line = mean of the 4 before it; read-out: M4, PDSP raw data, mean
T4 construct: purchased NIMH Psychoactive Drug Screening Program (PDSP)
T4 sequence (P08173 1-479): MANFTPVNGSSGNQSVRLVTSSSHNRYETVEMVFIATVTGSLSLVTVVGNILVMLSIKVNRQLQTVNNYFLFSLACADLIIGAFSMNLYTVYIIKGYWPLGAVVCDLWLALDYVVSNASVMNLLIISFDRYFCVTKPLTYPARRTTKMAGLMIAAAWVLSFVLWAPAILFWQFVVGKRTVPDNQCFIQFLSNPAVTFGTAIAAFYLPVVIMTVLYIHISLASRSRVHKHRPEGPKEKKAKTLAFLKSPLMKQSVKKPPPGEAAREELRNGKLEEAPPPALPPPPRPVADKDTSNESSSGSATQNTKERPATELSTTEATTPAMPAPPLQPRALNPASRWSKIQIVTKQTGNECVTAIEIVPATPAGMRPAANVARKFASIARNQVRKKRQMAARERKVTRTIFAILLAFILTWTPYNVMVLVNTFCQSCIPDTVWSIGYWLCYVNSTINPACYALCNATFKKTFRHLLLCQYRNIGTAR
Description: as §1, §2, §3

[5] = biological target: T5, Alpha1B (Homo sapiens, UniProt P35368); test: PDSP primary binding Alpha1B; conditions: 1.5 h; primary binding, 10,000 nM; last figure of the line = mean of the 4 before it; read-out: Alpha1B, PDSP raw data, mean
T5 construct: purchased NIMH Psychoactive Drug Screening Program (PDSP)
T5 sequence (P35368 1-520): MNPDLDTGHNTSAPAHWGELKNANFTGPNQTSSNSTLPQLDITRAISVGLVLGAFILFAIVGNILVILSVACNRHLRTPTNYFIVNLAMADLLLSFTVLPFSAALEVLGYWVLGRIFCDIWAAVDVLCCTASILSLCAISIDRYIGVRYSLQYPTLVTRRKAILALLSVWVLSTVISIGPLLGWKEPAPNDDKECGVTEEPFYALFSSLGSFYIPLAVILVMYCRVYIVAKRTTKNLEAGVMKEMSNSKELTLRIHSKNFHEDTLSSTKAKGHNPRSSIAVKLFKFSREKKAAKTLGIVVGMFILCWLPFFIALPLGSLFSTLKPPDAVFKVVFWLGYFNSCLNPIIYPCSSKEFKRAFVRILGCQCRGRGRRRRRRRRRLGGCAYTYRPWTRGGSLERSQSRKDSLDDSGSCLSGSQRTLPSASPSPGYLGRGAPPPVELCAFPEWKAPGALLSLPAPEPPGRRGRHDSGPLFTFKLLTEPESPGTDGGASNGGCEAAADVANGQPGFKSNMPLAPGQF
Description: as §1, §2, §3

[6] = biological target: T6, H4 (Homo sapiens, UniProt Q9H3N8); test: PDSP primary binding H4; conditions: primary binding, 10,000 nM; last figure of the line = mean of the 4 before it; read-out: H4, PDSP raw data, mean
T6 construct: purchased NIMH Psychoactive Drug Screening Program (PDSP)
T6 sequence (Q9H3N8 whole entry): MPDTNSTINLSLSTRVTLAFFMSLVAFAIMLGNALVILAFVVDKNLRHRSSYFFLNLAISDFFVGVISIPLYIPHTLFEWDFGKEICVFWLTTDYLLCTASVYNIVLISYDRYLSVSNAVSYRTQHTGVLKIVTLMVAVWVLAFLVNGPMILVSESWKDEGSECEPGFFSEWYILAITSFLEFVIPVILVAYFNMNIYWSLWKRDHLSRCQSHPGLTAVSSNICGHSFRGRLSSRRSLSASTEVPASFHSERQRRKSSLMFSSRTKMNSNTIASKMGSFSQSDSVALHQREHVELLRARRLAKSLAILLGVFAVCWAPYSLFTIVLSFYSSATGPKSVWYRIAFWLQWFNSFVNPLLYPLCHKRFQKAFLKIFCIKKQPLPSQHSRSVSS
Description: as §1, §2, §3

SMILES	inhibition at 10 µM [1] [%]	inhibition at 10 µM [2] [%]	inhibition at 10 µM [3] [%]	inhibition at 10 µM [4] [%]	inhibition at 10 µM [5] [%]	inhibition at 10 µM [6] [%]
C[C@H]1N=C(c2ccccc2F)c2cc(-c3ccccc3)ccc2-n2cnc(C(=O)N(C)C)c21 [Compound 5, (R)-6-(2′-Fluorophenyl)-N,N,4-trimethyl-8-phenyl-4H-benzo[f]imidazo[1,5-a][1,4]diazepine-3-carboxamide]	1.22	68.9	10.7	-3.29	-15.3	0.9
C#Cc1ccc2c(c1)C(c1ccccc1Cl)=N[C@H](C)c1c(C(=O)NC)ncn1-2 [Compound 21, (R)-6-(2′-Chlorophenyl)-8-ethynyl-N,4-dimethyl-4H-benzo[f]imidazo[1,5-a][1,4]diazepine-3-carboxamide]	12.2	-2.45	-7.9	-16.9	-6.66	-4.41
C#Cc1ccc2c(c1)C(c1ccccn1)=N[C@@H](C)c1c(C(=O)NC)ncn1-2 [Compound 23, (S)-8-Ethynyl-N,4-dimethyl-6-(pyridin-2′-yl)-4H-benzo[f]imidazo[1,5-a][1,4]diazepine-3-carboxamide]	-16.1	4.64	-0.6	2.93	22.2	-16.8
C#Cc1ccc2c(c1)C(c1ccccc1Cl)=N[C@H](C)c1c(C(=O)N(C)CC)ncn1-2 [Compound 29]	-17.2	7.23	-3.89	4.91	19.8	-21.5
C#Cc1ccc2c(c1)C(c1ccccn1)=N[C@@H](C)c1c(C(=O)N(C)C)ncn1-2 [Compound 31, (S)-8-Ethynyl-N,N,4-trimethyl-6-(pyridin-2′-yl)-4H-benzo[f]imidazo[1,5-a][1,4]diazepine-3-carboxamide]	-11.1	-0.93	-13.1	3.2	11	-12.6
C#Cc1ccc2c(c1)C(c1ccccc1F)=N[C@H](C)c1c(C(=S)N(C)C)ncn1-2 [Compound 33, (R)-8-Ethynyl-6-(2′-fluorophenyl)-N,N,4-trimethyl-4H-benzo[f]imidazo[1,5-a][1,4]diazepine-3-carbothioamide]	1.22	68.9	10.7	-3.29	-15.3	0.9
CCc1noc(-c2ncn3c2[C@@H](C)N=C(c2ccccc2F)c2cc(-c4ccccc4)ccc2-3)n1 [Compound 35, (R)-3-Ethyl-5-(6-(2′-fluorophenyl)-4-methyl-8-phenyl-4H-benzo[f]imidazo[1,5-a][1,4]diazepin-3-yl)-1,2,4-oxadiazole]	23.6	45.7	32.3	-4.16	8.69	54.7
CCc1noc(-c2ncn3c2[C@@H](C)N=C(c2ccccc2F)c2cc(Cl)ccc2-3)n1 [Compound 36, (R)-5-(8-Chloro-6-(2′-fluorophenyl)-4-methyl-4H-benzo[f]imidazo[1,5-a][1,4]diazepin-3-yl)-3-ethyl-1,2,4-oxadiazole]	3.16	16.6	11.1	-5.41	-0.79	28.9
CC(C)c1noc(-c2ncn3c2[C@@H](C)N=C(c2ccccc2F)c2cc(Cl)ccc2-3)n1 [Compound 37, (R)-5-(8-Chloro-6-(2′-fluorophenyl)-4-methyl-4H-benzo[f]imidazo[1,5-a][1,4]diazepin-3-yl)-3-isopropyl-1,2,4-oxadiazole]	17.1	18.5	14.1	-4.01	4.27	6.39
C[C@H]1N=C(c2ccccc2F)c2cc(Cl)ccc2-n2cnc(-c3nc(C4CC4)no3)c21 [Compound 38, (R)-5-(8-Chloro-6-(2′-fluorophenyl)-4-methyl-4H-benzo[f]imidazo[1,5-a][1,4]diazepin-3-yl)-3-cyclopropyl-1,2,4-oxadiazole]	14.1	17.6	11.6	-8.66	10.8	5.24
CCc1noc(-c2ncn3c2CN=C(c2ccccc2F)c2cc(C4CC4)ccc2-3)n1 [Compound 44, 5-(8-Cyclopropyl-6-(2′-fluorophenyl)-4H-benzo[f]imidazo[1,5-a][1,4]diazepin-3-yl)-3-ethyl-1,2,4-oxadiazole]	9.06	36.6	21.2	-4.92	6.87	20.6
CCc1noc(-c2ncn3c2[C@@H](C)N=C(c2ccccc2F)c2cc(C4CC4)ccc2-3)n1 [Compound 46, (R)-5-(8-Cyclopropyl-6-(2′-fluorophenyl)-4-methyl-4H-benzo[f]imidazo[1,5-a][1,4]diazepin-3-yl)-3-ethyl-1,2,4-oxadiazole]	51.2	44.2	23.6	-0.8	9.31	21.7
